These are literature values, as cited in patent US10391093B2, “Therapeutic compounds” (Arizona Board of Regents, A Body Corporate of the State of …, priority 2011, dated 2019).

A word on the EC50: it is the midpoint of the concentration-response curve. Usually Kd stands for a measure of binding affinity in units of concentration.

For one series, the target named is hRXRβ (Homo sapiens, UniProt P28702). The settings on record: read-out: EC50 for the hRXRβ isoform.
Series [1] relates to hRXR. The settings on record: Caco-2 cells.
Series [2] concerns the target hRXR. The settings on record: Caco-2 cells. The source holds these as a separate data set.

hRXRβ, sequence (P28702 whole entry, canonical isoform): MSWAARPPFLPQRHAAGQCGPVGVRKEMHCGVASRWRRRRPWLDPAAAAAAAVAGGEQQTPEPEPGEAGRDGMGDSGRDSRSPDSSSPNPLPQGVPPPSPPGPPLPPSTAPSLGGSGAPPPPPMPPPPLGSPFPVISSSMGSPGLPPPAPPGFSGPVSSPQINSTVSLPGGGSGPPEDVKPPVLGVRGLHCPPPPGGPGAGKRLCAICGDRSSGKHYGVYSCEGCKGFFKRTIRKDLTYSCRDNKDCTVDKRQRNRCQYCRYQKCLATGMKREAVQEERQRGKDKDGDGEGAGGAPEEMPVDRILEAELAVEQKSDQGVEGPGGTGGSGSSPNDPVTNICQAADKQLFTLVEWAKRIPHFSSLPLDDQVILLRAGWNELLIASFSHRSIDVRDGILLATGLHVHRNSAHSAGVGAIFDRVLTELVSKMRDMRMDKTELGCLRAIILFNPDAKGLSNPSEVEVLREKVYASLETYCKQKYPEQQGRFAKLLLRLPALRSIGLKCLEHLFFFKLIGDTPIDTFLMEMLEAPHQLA

For `Cc1cc2c(cc1-c1cc(/C=C/C(=O)O)ccc1O)C(C)(C)CCC2(C)C` [CD3254], the EC50 at hRXRβ was ~10 nM.

As for `C=C(c1ccc(C(=O)O)c(F)c1)c1cc2c(cc1C)C(C)(C)CCC2(C)C` [Compound 3], the EC50 in the series on hRXR [1] is 43 nM. The Kd on hRXR [2] was 12 nM.
